Data set [1] can be described thus: in vivo. The settings on record: rat, po.
Data set [2] can be described thus: in vivo. The settings on record: rat.

Molecules are shown by their SMILES.

As for `O=C(/C=C/c1ccc(Sc2ccccc2OC[C@H]2CC[C@@H](C(=O)O)CC2)c(C(F)(F)F)c1C(F)(F)F)N1CCOCC1`, the bioavailability in data set [1] turned out to be 9%. The molecule also had a half-life in data set [2] of 3.6 h.
The corresponding values for `O=C(/C=C/c1ccc(Sc2cccc(O[C@H]3CC[C@@H](C(=O)O)CC3)c2)c(C(F)(F)F)c1C(F)(F)F)N1CCOCC1` are 31% and 2.6 h.

The values above are taken from ChEMBL document CHEMBL1141708, “Structure-activity relationship of ortho- and meta-phenol based LFA-1 ICAM inhibitors” (Bioorg Med Chem Lett, 2008).
